Laboratory results as given in PMC6981274, “Structure and mechanism of a Type III CRISPR defence DNA nuclease activated by cyclic oligoadenylate” (Nature Communications, 2020).

Biological target: T1, Can1 (CRISPR ancillary nuclease 1; TTHB155) (Thermus thermophilus, UniProt Q53W14)
T1 construct: full length 636 aa plus C-terminal Leu-Glu; synthetic gene, E. coli C43 (DE3) (SeMet protein in B834), N-terminal His tag cut with TEV; monomer
T1 sequence (Q53W14 1-636): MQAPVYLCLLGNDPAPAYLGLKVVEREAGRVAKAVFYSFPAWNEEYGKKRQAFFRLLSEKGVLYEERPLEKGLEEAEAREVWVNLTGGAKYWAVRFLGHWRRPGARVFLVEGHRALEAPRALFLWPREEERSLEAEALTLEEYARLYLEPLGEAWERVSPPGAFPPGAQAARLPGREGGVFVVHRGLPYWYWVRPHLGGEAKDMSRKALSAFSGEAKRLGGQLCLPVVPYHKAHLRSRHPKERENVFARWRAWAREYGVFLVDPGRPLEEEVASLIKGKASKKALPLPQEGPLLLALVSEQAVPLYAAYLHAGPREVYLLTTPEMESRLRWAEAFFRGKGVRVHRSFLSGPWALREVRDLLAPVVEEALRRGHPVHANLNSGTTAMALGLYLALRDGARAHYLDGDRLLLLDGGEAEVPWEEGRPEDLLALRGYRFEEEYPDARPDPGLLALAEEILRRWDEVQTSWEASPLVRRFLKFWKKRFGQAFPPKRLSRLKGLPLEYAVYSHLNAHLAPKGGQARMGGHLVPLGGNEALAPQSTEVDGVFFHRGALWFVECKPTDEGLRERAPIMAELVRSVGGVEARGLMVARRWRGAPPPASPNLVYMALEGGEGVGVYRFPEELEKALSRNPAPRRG
Test: X-ray crystal structure ([…] A); also EMSA with […]-labelled cA4, SAXS and nuclease activation
Format: binding
Details: SeMet protein, 1:2 molar ratio with cA4, pH 6.5; site between the two CARF domains; activator

X-ray crystal structure (1.83 A); also EMSA with 32P-labelled cA4, SAXS and nucl: A molecule of cA4 sits at the interface
Structure (SMILES): Nc1ncnc2c1ncn2[C@@H]1O[C@@H]2COP(=O)(O)O[C@H]3[C@@H](O)[C@H](n4cnc5c(N)ncnc54)O[C@@H]3COP(=O)(O)O[C@H]3[C@@H](O)[C@H](n4cnc5c(N)ncnc54)O[C@@H]3COP(=O)(O)O[C@H]3[C@@H](O)[C@H](n4cnc5c(N)ncnc54)O[C@@H]3COP(=O)(O)O[C@H]2[C@H]1O [cA4]
